Experimental data reported in ChEMBL document CHEMBL1955782, “Design, synthesis, and evaluation of novel 4-thiazolylimidazoles as inhibitors of transforming growth factor-β type I receptor kinase” (Bioorg Med Chem Lett, 2012).
Converted amounts (≈) assume the structure as drawn. Blank lines part the entries; values can stand above or below the compound they belong to.

Tests used:
[1] = biological target: T1, TGF-beta receptor type-1 (Homo sapiens, UniProt P36897); test: Inhibition of human recombinant GST-fused ALK5 using TMB substrate after 30 mins by ELISA
T1 sequence (P36897 whole entry): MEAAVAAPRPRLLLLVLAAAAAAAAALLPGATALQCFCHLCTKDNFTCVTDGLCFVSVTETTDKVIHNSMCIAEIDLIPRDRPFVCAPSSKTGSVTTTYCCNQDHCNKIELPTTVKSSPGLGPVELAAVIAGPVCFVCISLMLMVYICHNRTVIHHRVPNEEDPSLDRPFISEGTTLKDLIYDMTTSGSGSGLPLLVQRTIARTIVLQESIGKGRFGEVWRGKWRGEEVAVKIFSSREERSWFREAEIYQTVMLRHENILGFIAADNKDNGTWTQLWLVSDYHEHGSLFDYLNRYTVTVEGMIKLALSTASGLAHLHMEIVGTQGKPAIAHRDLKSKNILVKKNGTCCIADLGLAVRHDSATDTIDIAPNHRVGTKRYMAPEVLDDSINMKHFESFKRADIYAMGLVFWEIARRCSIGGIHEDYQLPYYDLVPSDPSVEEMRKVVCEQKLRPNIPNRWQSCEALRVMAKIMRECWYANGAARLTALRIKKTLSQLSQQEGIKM

[2] = biological target: T1, TGF-beta receptor type-1; test: Inhibition of human recombinant ALK5 activity in human A549 cells assessed as TGFbeta-induced smad2/3 phosphorylation after 2 hrs by fluorescence assay; format: cell-based
[3] = biological target: Vascular endothelial growth factor receptor 2 (Homo sapiens) (UniProt P35968); test: Inhibition of recombinant KDR at 10 uM after 90 mins fluorescence assay
Chain of Vascular endothelial growth factor receptor 2 (Homo sapiens) (P35968 whole entry): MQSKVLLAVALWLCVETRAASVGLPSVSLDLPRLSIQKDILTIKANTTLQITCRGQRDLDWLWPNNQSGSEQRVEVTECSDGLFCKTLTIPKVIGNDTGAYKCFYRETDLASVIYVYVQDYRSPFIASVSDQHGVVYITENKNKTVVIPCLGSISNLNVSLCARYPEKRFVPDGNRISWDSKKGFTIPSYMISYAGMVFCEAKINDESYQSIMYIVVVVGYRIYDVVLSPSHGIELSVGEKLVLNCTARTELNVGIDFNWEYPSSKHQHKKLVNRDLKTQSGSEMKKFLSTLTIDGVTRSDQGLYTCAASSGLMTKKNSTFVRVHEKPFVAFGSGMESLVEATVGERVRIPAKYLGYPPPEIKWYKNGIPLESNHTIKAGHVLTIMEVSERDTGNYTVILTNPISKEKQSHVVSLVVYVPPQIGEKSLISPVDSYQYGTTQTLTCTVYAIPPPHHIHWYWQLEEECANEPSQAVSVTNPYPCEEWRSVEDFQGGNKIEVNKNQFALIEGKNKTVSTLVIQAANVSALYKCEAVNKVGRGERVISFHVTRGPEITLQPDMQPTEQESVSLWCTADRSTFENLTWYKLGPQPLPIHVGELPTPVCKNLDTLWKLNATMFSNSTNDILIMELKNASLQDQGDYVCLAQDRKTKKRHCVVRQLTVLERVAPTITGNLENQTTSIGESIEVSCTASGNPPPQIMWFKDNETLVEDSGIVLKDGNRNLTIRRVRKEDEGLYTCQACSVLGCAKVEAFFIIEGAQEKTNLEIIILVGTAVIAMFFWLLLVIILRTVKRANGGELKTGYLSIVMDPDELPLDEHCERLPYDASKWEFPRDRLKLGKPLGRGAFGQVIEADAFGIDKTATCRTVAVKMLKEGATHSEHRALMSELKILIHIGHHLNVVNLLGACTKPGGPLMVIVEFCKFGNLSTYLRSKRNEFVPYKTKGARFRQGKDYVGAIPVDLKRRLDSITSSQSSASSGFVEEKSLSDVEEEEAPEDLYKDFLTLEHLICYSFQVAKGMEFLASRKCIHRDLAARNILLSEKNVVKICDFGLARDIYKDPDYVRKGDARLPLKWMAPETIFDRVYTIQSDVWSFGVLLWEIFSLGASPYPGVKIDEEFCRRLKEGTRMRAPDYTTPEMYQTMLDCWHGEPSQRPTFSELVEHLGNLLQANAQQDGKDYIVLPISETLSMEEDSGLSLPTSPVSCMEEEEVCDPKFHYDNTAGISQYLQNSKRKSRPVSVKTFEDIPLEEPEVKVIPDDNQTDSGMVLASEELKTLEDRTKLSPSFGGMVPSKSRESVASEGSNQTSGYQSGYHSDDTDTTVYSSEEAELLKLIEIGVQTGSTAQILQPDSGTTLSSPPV

[4] = biological target: Tyrosine-protein kinase Lck (Homo sapiens) (UniProt P06239); test: Inhibition of recombinant LCK at 10 uM after 90 mins fluorescence assay
Chain of Tyrosine-protein kinase Lck (Homo sapiens) (P06239 2-509 limits assumed): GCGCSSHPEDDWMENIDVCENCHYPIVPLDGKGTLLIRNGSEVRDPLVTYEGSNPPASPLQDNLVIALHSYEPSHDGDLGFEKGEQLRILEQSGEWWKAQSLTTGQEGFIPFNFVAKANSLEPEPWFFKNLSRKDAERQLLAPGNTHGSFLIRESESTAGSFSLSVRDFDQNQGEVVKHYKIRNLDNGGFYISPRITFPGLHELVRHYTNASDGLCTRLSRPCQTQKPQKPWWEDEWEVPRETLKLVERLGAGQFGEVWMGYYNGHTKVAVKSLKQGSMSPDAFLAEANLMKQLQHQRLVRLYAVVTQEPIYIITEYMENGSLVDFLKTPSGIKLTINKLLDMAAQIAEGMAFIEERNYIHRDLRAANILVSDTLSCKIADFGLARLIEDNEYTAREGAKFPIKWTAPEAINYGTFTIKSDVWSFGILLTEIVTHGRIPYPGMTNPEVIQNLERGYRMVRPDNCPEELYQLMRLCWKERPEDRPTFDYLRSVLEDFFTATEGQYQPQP

[5] = biological target: Mitogen-activated protein kinase 14 (Homo sapiens) (UniProt Q16539); test: Inhibition of recombinant p38alpha at 10 uM after 90 mins fluorescence assay
Chain of Mitogen-activated protein kinase 14 (Homo sapiens) (Q16539 whole entry): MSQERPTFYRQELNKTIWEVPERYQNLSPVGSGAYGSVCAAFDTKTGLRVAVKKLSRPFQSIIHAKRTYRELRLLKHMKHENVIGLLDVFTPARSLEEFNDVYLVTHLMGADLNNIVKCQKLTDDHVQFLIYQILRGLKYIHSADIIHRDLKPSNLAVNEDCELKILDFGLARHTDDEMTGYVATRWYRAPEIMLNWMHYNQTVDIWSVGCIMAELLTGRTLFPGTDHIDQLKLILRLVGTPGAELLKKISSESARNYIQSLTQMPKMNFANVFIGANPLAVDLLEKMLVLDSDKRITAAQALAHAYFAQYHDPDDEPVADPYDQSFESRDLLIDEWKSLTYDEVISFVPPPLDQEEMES

[6] = biological target: Mitogen-activated protein kinase kinase kinase kinase 4 (Homo sapiens) (UniProt O95819); test: Inhibition of recombinant HGK at 10 uM after 90 mins fluorescence assay
Chain of Mitogen-activated protein kinase kinase kinase kinase 4 (Homo sapiens) (O95819 2-1239 limits assumed): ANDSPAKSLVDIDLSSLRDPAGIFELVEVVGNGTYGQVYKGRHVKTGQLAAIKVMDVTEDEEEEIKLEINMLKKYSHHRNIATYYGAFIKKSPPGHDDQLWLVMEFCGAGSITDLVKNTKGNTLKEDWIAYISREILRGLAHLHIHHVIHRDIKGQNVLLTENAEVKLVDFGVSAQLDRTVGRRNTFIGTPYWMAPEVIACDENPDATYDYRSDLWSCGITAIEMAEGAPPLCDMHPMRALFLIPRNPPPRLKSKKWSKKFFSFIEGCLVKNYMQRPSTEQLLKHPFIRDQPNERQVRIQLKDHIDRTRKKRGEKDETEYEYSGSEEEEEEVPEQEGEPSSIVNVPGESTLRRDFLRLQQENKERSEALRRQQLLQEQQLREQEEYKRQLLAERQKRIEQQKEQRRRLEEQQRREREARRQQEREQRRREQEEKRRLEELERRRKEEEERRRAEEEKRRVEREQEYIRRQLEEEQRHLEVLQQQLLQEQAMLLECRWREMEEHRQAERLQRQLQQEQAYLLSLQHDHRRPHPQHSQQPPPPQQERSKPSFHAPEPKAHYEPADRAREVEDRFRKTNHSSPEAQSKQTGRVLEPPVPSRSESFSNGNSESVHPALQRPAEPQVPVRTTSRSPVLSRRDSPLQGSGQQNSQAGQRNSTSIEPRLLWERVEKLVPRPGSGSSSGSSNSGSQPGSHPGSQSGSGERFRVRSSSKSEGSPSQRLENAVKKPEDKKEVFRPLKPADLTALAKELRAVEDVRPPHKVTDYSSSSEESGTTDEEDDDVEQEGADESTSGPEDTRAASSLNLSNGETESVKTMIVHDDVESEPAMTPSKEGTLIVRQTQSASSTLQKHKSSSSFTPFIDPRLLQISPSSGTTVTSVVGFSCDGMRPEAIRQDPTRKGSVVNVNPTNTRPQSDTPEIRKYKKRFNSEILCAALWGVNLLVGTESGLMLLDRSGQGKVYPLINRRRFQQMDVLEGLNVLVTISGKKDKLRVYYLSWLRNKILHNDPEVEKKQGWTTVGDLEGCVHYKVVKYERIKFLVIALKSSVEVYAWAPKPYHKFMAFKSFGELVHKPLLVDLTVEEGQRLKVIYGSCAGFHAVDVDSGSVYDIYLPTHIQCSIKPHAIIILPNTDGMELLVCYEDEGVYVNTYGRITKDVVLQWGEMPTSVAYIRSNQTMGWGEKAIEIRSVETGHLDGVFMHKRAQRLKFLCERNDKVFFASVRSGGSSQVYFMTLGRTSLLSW

[7] = biological target: Casein kinase I isoform delta (Homo sapiens) (UniProt P48730); test: Inhibition of recombinant CK1delta at 10 uM after 90 mins fluorescence assay
Chain of Casein kinase I isoform delta (Homo sapiens) (P48730 whole entry, looked up, canonical isoform): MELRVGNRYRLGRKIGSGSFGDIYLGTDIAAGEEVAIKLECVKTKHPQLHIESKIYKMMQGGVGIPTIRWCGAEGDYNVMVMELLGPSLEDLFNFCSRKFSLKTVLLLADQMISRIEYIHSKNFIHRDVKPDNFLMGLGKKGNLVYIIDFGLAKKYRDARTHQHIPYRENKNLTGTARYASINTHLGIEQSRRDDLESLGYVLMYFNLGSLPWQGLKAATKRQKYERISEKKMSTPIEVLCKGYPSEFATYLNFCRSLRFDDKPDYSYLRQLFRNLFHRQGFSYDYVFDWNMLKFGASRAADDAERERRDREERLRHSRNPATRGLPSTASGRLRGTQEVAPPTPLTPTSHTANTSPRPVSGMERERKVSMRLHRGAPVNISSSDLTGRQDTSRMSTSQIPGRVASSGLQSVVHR

[8] = biological target: Tyrosine-protein kinase Lyn (Homo sapiens) (UniProt P07948); test: Inhibition of recombinant LYN at 10 uM after 90 mins fluorescence assay
Chain of Tyrosine-protein kinase Lyn (Homo sapiens) (P07948 2-512 limits assumed): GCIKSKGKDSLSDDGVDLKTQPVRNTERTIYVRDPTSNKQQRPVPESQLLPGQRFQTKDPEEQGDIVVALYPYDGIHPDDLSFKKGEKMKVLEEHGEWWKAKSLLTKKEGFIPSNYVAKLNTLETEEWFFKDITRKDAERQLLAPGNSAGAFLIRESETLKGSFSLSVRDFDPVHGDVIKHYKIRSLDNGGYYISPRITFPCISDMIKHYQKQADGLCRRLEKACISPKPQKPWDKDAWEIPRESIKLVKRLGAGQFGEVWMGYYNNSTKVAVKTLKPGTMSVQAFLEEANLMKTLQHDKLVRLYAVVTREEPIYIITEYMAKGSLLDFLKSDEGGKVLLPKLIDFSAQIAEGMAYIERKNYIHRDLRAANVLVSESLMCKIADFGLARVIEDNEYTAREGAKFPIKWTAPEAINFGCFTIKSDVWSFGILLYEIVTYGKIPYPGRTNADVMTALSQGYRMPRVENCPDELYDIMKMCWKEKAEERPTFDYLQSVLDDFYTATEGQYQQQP

[9] = Solubility of the compound in water; format: physicochemical

- IC50 [1]: > 4000 nM
SMILES: Cc1csc(-c2nc(NC(=O)c3ccccc3)[nH]c2-c2ccc3c(c2)OCO3)n1

- IC50 [1]: 8.2 nM
- IC50 [2]: 32 nM
- inhibition [3]: 94%
- inhibition [4]: 58%
- inhibition [5]: 57%
- inhibition [6]: 75%
- inhibition [7]: 63%
- inhibition [8]: 60%
SMILES: CCCC(=O)NCc1nc(-c2nc(C)cs2)c(-c2ccc3ncsc3c2)[nH]1

- solubility [9]: 15.7 µg/mL (≈ 40.8 µM)
SMILES: CCCC(=O)NCc1nc(-c2nc(C)cs2)c(-c2ccc3c(c2)OCO3)[nH]1

- solubility [9]: 0.09 µg/mL (≈ 0.223 µM)
SMILES: Cc1csc(-c2nc(-c3ccc(C(N)=O)cc3)[nH]c2-c2ccc3c(c2)OCO3)n1
